Reference: patent US11787850B2, “Peptidic TGF-beta antagonists” (priority 2015, dated 2023)

Legend:
[1] = system: TGF-β-induced EMT in HaCaT cells; assay: Immunofluorescence of F-actin and E-cadherin in HaCaT cells with pathway inhibitors; type: cell-based, human; details: for effect mediated by CD109 siRNA transfection on actin stress fibers appearance and relocalization of E-cadherin / effect on EMT markers in the absence of TGF-β: 0.5 μM SB431542, 1 μM SB203580, 10 μM U0126; for effect on EMT markers in the absence of TGF-β: data not shown
[2] = system: TGF-β-induced migration of HaCaT cells; assay: Scratch assay in HaCaT cells with pathway inhibitors; type: cell-based, human; details: 100 pM TGF-β1, 36 hrs; 0.5 μM SB431542, 1 μM SB203580, 10 μM U0126
Protocol: (FIG. 18A) HaCaT cells transfected with control or CD109 siRNA were scratched and treated with or without 100 pM TGF-β1, 0.5 μM SB431542, 1 μM SB203580 and/or 10 μM U0126 for 36 hrs. Dotted line: wound margin at 0 hr, regular line: wound margin at 36 hrs.
Confluent monolayers of HaCaT or A431 cells were wounded by scrapping the cells with a 200 μl pipette tip. Cells were then incubated with 100 pM TGF-β1, in presence or absence of 10 μM U0126, 1 μM SB203580, 0.5 μM SB431542 in serum free medium for 24-48 hrs. Pictures were taken at the same spot at 0 hr, 24 hrs and 48 hrs. The cell-free area (wound) area was measured using ImageJ™ software and the percentage of original wound area filled with keratinocytes was calculated. At least 3 independents series of experiments were performed in triplicates.
Finally, it was determined whether CD109's effect on migration was also mediated by the SMAD2/3 and MAPK pathways.

[3] = system: TGF-β-induced fibronectin and Slug expression in HaCaT cells; assay: Western blot for fibronectin and Slug in HaCaT cells with pathway inhibitors; type: cell-based, human; details: for effect of CD109 knock-down on TGF-β-induced Slug expression: 100 pM TGF-β1, 4 hrs, 0.5 μM SB431542, 10 μM U0126; for fibronectin production: CD109 siRNA HaCaT cells, 100 pM TGF-β1, 16 hrs, 0.5 μM SB431542, 1 μM SB203580, 10 μM U0126
[4] = system: TGF-β-induced epithelial-mesenchymal transition (EMT) response in squamous cell carcinoma (A431) cells; assay: Immunoblot of EMT markers in A431 cells; type: cell-based; details: 10 nM peptide, 100 pM TGF-b, 24 hrs (FIG. 33)
Protocol: (FIG. 26A) Immunoblot analysis was carried out using cell lysates of A431 cells following incubation with TGF-β, P16, or scrambled control (P16.2) as indicated to determine expression of proteins involved in the EMT response. (FIG. 26B) Densitometry analysis was subsequently performed using the developed immunoblot to illustrate the relative expression of each protein as a function as P16 concentration as indicated.
A431 cancer cells treated with 10 nM of P16.2 (negative peptide control), P12, P16 or PA in the absence or presence of 100 pM TGF-b, followed by 24 hrs of incubation. Cells lysates were analyzed by Western blot for the expression of Fibronectin (mesenchymal marker), Snail and Twist (EMT markers). Actin expression was used as loading control.

[5] = system: TGF-β-induced migration of squamous cell carcinoma (A431) cells; assay: Scratch (wound closure) migration assay, A431 cells; type: cell-based; details: 10 nM peptide, 100 pM TGF-β1, 24 hours (FIG. 10)
Protocol: FIG. 10A and FIG. 10B illustrate that peptides B, E and X-1 inhibit TGF-β-induced cellular migration of A431 cells in vitro. Results are shown prior to treatment (0 hr, top panels) and after treatment (24 hr, bottom panels) for each of the peptides used. (See FIG. 2 and Table 1 for the amino acid sequence identity of the peptides).
A431 cells were grown to 80-90% confluence and serum-starved overnight. The next day, cells were scratched with a plastic pipette tip (time 0 hour) and then left untreated or treated for 24 hours with 100 pM TGF-β1 alone or in the presence of P16 as indicated. (FIG. 27A) Digital images were captured at 0 h and 24 h using an EVOS XL Core microscope. (FIG. 27B) Micrographs were subsequently quantitated to determine the percentage of the wound area that had closed following 24 hours in the presence or absence of P16, as indicated.
Cells were scratched with a pipette tip and treated without or with 100 pM TGF-b1 alone or in the presence of 10 nM Peptide A or Peptide A1 (C31S mutant). Pictures were taken at 0 and 24 hrs. Peptide A but not Peptide A1 inhibits TGF-b-induced migration in A431 cells. Peptide A contains monomeric and dimeric forms whereas Peptide A1 contains a C31S mutation to prevent intermolecular disulfide bond formation so that it forms monomers only.
(§1) Squamous cell carcinoma (A431) or breast cancer (MDA-MB-231) cells were grown to 80-90% confluence and serum-starved overnight. The next day, cells were scratched with a plastic pipette tip (time 0 hour) and then left untreated or treated for 24 hours with 100 pM TGF-β1 alone or in the presence of 10 nM peptide B (100 aa), E (67 aa), or X1 (P28, 28 aa). Digital images were captured at 0 h and 24 h (20× magnification) using an EVOS XL Core microscope.

[6] = Size-exclusion chromatography on Superdex Peptide 10/300GL column; type: physicochemical
Protocol: Approximately 200 μg of each peptide X (40 amino acids), X-1 (28 amino acids), peptide A (161 amino acids), P11 (11 amino acids), P16 (16 amino acids), P21 (21 amino acids, P16-2 (16 amino acids, scrambled sequence control), X-3 (16 amino acids) and X-4 (11 amino acids) were dissolved in phosphate-buffered saline (PBS) and loaded onto a Superdex Peptide 10/300GL column. The column was eluted with PBS at a flow rate of 0.6 mL/min and eluents were analyzed for peptide content by measuring relative absorbance at a wavelength of 215 nm. (FIGS. 3A and 3B) The data is plotted with relative absorbance (Y-axis) against elution volume (X-axis). Peptides 1-9 are color coded (A—peptides (1) to (5); B (peptides (6) to (9)). As shown on panel A, peptide X (peptide 1, black line) elution profile indicated two major peaks at approximately 8 mL and 11 mL which correspond to molecular weights greater than 12.4 kDa. The theoretical molecular weight of peptide X is 4.7 kDa which is expected to elute from the column at approximately 15 mL. Under the conditions tested, peptide X existed as high molecular weight aggregates with minimal soluble (monomeric) form. On the other hand, P16 (peptide 5, green line) elution profile indicated a broad peak between 14-22 mL which is expected to contain peptides of between 0.1 and 6 kDa and is consistent with its theoretical molecular weight of 2.01 kDa.
FIG. 4 illustrates the standard curve used for size-exclusion chromatography of standard peptides using the Superdex Peptide 10/300 GL column (results provided in FIG. 3). A pool of standard peptides of various molecular weights (1. cytochrome c (Mr 12.384 kDa) 1 mg/mL; 2. aprotinin (Mr 6.512 kDa) 2 mg/mL; 3. vitamin B12 (Mr 1.355 kDa) 0.1 mg/mL; 4. (Gly)3 (Mr 0.189 kDa) 0.1 mg/mL; 5. Gly (Mr 0.075 kDa) 7.8 mg/mL) were subjected to size-exclusion chromatography using the Superdex Peptide 10/300 GL column (flow rate 0.5 ml/min at room temperature, sample volume of 50 μL, eluent 0.05M phosphate, 0.15 M NaCl, ph 7.0). The resulting chromatogram (absorbance at 215 nm (in mAU, left Y axis) and conductivity (in mS/cm, right Y axis, in function of volume of elution (in mL)) indicates the elution profiles of the above peptides with high MW peptides eluting in earlier fractions and lower MW peptides eluting in later fractions as expected. The molecular weights of peptides were plotted against elution volume generating a standard curve (not shown).
More specifically, approximately […] of each peptide X (40 amino acids), X-1 (28 amino acids), peptide A (161 amino acids), P11 (11 amino acids), P16 (16 amino acids), P21 (21 amino acids, P16-2 (16 amino acids, scrambled sequence control), X-3 (16 amino acids) and X-4 (11 amino acids) were dissolved in phosphate-buffered saline (PBS) and loaded onto a Superdex Peptide 10/300GL column. The column was eluted with PBS at a flow rate of 0.6 ml/min and eluants were analyzed for peptide content by measuring relative absorbance at a wavelength of 215 nm. The data were plotted with relative absorbance (Y-axis) against elution volume (X-axis). […] The theoretical molecular weight of peptide X is 4.7 kDa which is expected to elute from the column at approximately 15 mL. […] P16 (peptide 5) elution profile indicated a peak between 14-22 mL which was expected to contain peptides of between 0.1 and 6 kDa and is consistent with its theoretical molecular weight of 2.01 kDa.
More specifically, a pool of standard proteins of various molecular weights were subjected to size-exclusion chromatography using the Superdex Peptide 10/300 GL column. The resulting chromatogram indicated the elution profiles of the peptides with high molecular weight peptides eluting in earlier fractions and lower molecular weight peptides eluting in later fractions as expected. The molecular weights of peptides were plotted against elution volume generating a standard curve (not shown) and was used to calculate molecular weights of the CD109-based peptides. […]

[7] = system: TGF-β-induced migration of breast cancer (MDA-MB-231) cells; assay: Scratch migration assay, MDA-MB-231 cells; type: cell-based; details: 10 nM peptide, 100 pM TGF-β1, 24 hours (FIG. 11)
Protocol: FIG. 11A and FIG. 11B illustrate that peptides B, E and X-1 inhibit TGF-β-induced cellular migration of MDA-MB-231 cells in vitro. Results are shown prior to treatment (0 hr, top panels) and after treatment (24 hr, bottom panels) for each of the peptides used.
as §1

[8] = system: TGF-β1-induced Smad3-driven (CAGA12-lux) transcriptional activity; assay: Luciferase reporter assay in HEK293-(CAGA)12 cells; type: cell-based; details: 10 nM or 5 nM peptide, 100 pM TGF-β1, 18 hours (FIG. 5)

N#CC(=C(/N)Sc1ccccc1N)/C(C#N)=C(\N)Sc1ccccc1N [Peptide U0126, U0126]
effect mediated by CD109 siRNA transfection on actin stress fibers appearance and relocalization of E-cadherin ([1]; 100 pM TGF-β1, 36 hrs): reduces (but does not abrogate)
effect on EMT markers in the absence of TGF-β [1]: no effect
increase of TGF-β-induced cell migration by CD109 knock-down [2]: partially reversed
effect of CD109 knock-down on TGF-β-induced Slug expression [3]: abrogated
fibronectin production [3]: reduced

C[S+]([O-])c1ccc(-c2nc(-c3ccncc3)c(-c3ccc(F)cc3)[nH]2)cc1 (stereo not shown) [SB203580]
effect mediated by CD109 siRNA transfection on actin stress fibers appearance and relocalization of E-cadherin ([1]; 100 pM TGF-β1, 36 hrs): reduces (but does not abrogate)
effect on EMT markers in the absence of TGF-β [1]: no effect
fibronectin production [3]: reduced
Slug expression ([3]; control siRNA and CD109 siRNA HaCaT cells, absence or presence of TGF-β, 1 μM SB203580): increases

NC(=O)c1ccc(-c2nc(-c3ccc4c(c3)OCO4)c(-c3ccccn3)[nH]2)cc1 [SB431542]
appearance of actin stress fibers in control siRNA transfected cells ([1]; 100 pM TGF-β1, 36 hrs, 0.5 μM SB431542): totally prevents
effect mediated by CD109 siRNA transfection on actin stress fibers appearance and relocalization of E-cadherin ([1]; 100 pM TGF-β1, 36 hrs): reduces (but does not abrogate)
effect on EMT markers in the absence of TGF-β [1]: no effect
increase of TGF-β-induced cell migration by CD109 knock-down [2]: partially reversed
effect of CD109 knock-down on TGF-β-induced Slug expression [3]: abrogated
fibronectin production [3]: totally abrogated

ETWIWLDTNMGS [Peptide P12]
inhibition of TGF-b induced EMT response (Fibronectin, Snail, Twist) [4]: not

ETWIWLDTNMGSRIYQEFEVTVPDSITS (Peptide X-1)
inhibition of TGF-β-induced cellular migration of A431 cells [5]: inhibit
formation of aggregates by size-exclusion chromatography ([6]; peptide in PBS, Superdex Peptide 10/300GL, 0.6 ml/min): formed aggregates
Aggregation? ([6]; size-exclusion chromatography, peptide dissolved in PBS): Aggregated
inhibition of TGF-β-induced cellular migration of MDA-MB-231 cells [7]: inhibit
inhibition of TGF-β1-induced CAGA12-lux activity [8]: inhibited

B1: B: CD109-based peptide (100 aa), SEQ ID NO: 19 (protein)
chain: TMENVVHELELYNTGYYLGMFMNSFAVFQECGLWVLTDANLTKDYIDGVYDNAEYAERFMEENEGHIVDIHDFSLGSSPHVRKHFPETWIWLDTNMGSRIYQEFEVT
modifications: Peptide B
inhibition of TGF-β-induced cellular migration of A431 cells [5]: inhibit
inhibition of TGF-β-induced cellular migration of MDA-MB-231 cells [7]: inhibit

B2: E: CD109-based peptide (67 aa), SEQ ID NO: 20 (protein)
chain: LTKDYIDGVYDNAEYAERFMEENEGHIVDIHDFSLGSSPHVRKHFPETWIWLDTNMGSRIYQEFEVTV
modifications: Peptide E
inhibition of TGF-β-induced cellular migration of A431 cells [5]: inhibit
inhibition of TGF-β-induced cellular migration of MDA-MB-231 cells [7]: inhibit
